Each structure is given as a SMILES string. Bounds are passed on as bounds.

Test [1] concerns the target T1, Brd4 bromodomain 1 (BRD4(1)) (Homo sapiens, UniProt O60885).
T1 construct: made in house; host or cells: E. coli BL21(DE3)
The experiment in a line: Inhibition of tetra-acetylated histone H4 binding to Brd4 bromodomain 1 (TR-FRET). The conditions noted are these: tetra-acetylated histone H4 peptide, first bromodomain of Brd4. In a few lines: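 His-tagged BRD4(1) from E. coli (200 nM) with biotinylated tetra-acetylated H4 peptide (25-50 nM), Eu-cryptate streptavidin and XL665 anti-His, in HEPES pH 7.4/phosphate/KF buffer, 0.2% DMSO. After 2 h at room temperature, TR-FRET 665/620 nm ratio read; IC50 from dose-response curves.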
A general note: TR-FRET usually uses a lanthanide donor and a delayed reading to cut background.

For the next test, the system named is c-myc. As to the kind of experiment: Inhibition of c-myc expression (mRNA, real-time PCR) in MV4-11 cells. It is filed as cell-based. The conditions noted are these: Human AML MV4-11 cells, 3 h, cMYC mRNA. In a few lines:
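MV4-11 cells treated 3 h at 37° C with increasing compound concentrations or 0.1% DMSO, in triplicate. cMYC mRNA quantified by one-step TaqMan real-time PCR, Ct normalized to internal control (Cyclophilin primers used), fold expression relative to control.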

A further test has as its system human AML MV-4-11 cells. As to the kind of experiment: Inhibition of cell proliferation in MV4-11 cells (CellTiter Aqueous One). The test is classed as cell-based. To be noted: for IC50: MV4-11, 72 h. The procedure, abridged:
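Exponentially growing MV-4-11 cells (5×10^4/well) were treated immediately with two-fold dilutions of compound from 30 μM to 0.2 μM, in triplicate, for 72 h at 37° C, 5% CO2. Viability was measured by MTS absorbance at 490 nm after 3–4 h. Proliferation relative to DMSO after blank correction gave IC50.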

In the next test the test system is hIL-6 mRNA. The experiment in a line: Inhibition of hIL-6 mRNA transcription in LPS-stimulated U937 cells. The test is classed as cell-based. To be noted: Homo sapiens, U-937; PMA-differentiated U937 cells, 1 h pretreatment, 1 ug/mL LPS stimulation, 3 h; read-out: IL-6 activity (Inhibition of hIL-6 mRNA Transcription). In a few lines:
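U937 cells differentiated 3 days with 60 ng/mL PMA, pretreated 1 h with compound (0.1% DMSO), then stimulated with 1 ug/mL E. coli LPS for 3 h at 37 °C. hIL-6 mRNA measured by one-step TaqMan RT-qPCR, normalized to cyclophilin. Fold expression relative to control; triplicate wells.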

The subject of a further test is hIL-17 mRNA. As to the kind of experiment: Inhibition of hIL-17 mRNA transcription in OKT3-stimulated peripheral blood mononuclear cells. To be noted: PBMC, human peripheral blood mononuclear cells, OKT3 antibody, 6 h, read-out: IL-17 activity. The test is classed as cell-based. How it is done:
In this example, hIL-17 mRNA in human peripheral blood mononuclear cells was quantitated to measure the transcriptional inhibition of hIL-17 when treated with a compound of the invention.
Human peripheral blood mononuclear cells were plated (2.0×10^5 cells per well) in a 96-well plate in 45 μL OpTimizer T Cell expansion media containing 20 ng/ml IL-2 and penicillin/streptomycin. The cells were treated with the test compound (45 μL at 2× concentration), and then the cells were incubated at 37° C. for 1 h before addition of 10× stock OKT3 antibody at 10 μg/ml in media. Cells were incubated at 37° C. for 6 h before the cells were harvested. At time of harvest, cells were centrifuged (800 rpm, 5 min). Spent media was removed and cell lysis solution (70 μL) was added to the cells in each well and incubated for 5-10 min at room temperature, to allow for complete cell lysis and detachment. mRNA was then prepared using the “mRNA Catcher PLUS plate” (Invitrogen), according to the protocol supplied. After the last wash, as much wash buffer as possible was aspirated without allowing the wells to dry. Elution buffer (E3, 70 μL) was then added to each well. mRNA was then eluted by incubating the mRNA Catcher PLUS plate with Elution Buffer for 5 min at 68° C. and then immediately placing the plate on ice.
The eluted mRNA isolated was then used in a one-step quantitative RT-PCR reaction, using components of the Ultra Sense Kit together with Applied Biosystems primer-probe mixes. Real-time PCR data was analyzed, normalizing the Ct values for hIL-17 to an internal control, prior to determining the fold induction of each unknown sample, relative to the control.

For the compound `Cc1noc(C)c1-c1cnc2ncn(Cc3ccccc3)c2c1` [Example Compound 5, 4-(1-Benzyl-1H-imidazo[4,5-b]pyridin-6-yl)-3,5-dimethylisoxazole], the IC50 in test [1] was at most 0.3 µM; in the test with c-myc it was 0.3 to 3 µM; in the test with human AML MV-4-11 cells, 0.3 to 3 µM; with hIL-6 mRNA it was 0.3 to 3 µM; in the test on hIL-17 mRNA it was 0.3 to 3 µM.
Take `Cc1noc(C)c1-c1cc(N)c2c(c1)ncn2Cc1ccccc1` [Example Compound 8, 1-Benzyl-5-(3,5-dimethylisoxazol-4-yl)-1H-benzo[d]imidazol-7-amine]: the IC50 is at most 0.3 µM in test [1]; 0.3 to 3 µM in the test on c-myc; 0.3 to 3 µM in the test on human AML MV-4-11 cells; 0.3 to 3 µM in the test on hIL-6 mRNA; 0.3 to 3 µM in the test on hIL-17 mRNA.
With `Cc1noc(C)c1-c1cnc2[nH]c(=O)n(Cc3ccccc3)c2c1` [Example Compound 10, 1-Benzyl-6-(3,5-dimethylisoxazol-4-yl)-1H-imidazo[4,5-b]pyridin-2(3H)-one], the IC50 is at most 0.3 µM in test [1]; 0.3 to 3 µM in the test on c-myc; 0.3 to 3 µM in the test on human AML MV-4-11 cells; at most 0.3 µM in the test on hIL-6 mRNA; at most 0.3 µM in the test on hIL-17 mRNA.
Take `Cc1noc(C)c1-c1cnc2nc(C)n(Cc3ccccc3)c2c1` [Example Compound 13, 4-(1-benzyl-2-methyl-1H-imidazo[4,5-b]pyridin-6-yl)-3,5-dimethylisoxazole]: the IC50 in test [1] is at most 0.3 µM; with c-myc, 0.3 to 3 µM; in the test with human AML MV-4-11 cells, 0.3 to 3 µM; with hIL-6 mRNA it was at most 0.3 µM; in the test with hIL-17 mRNA, 0.3 to 3 µM.
For the compound `Cc1noc(C)c1-c1cc(N)c2[nH]c(=O)n(Cc3ccccc3)c2c1` [Example Compound 16, 4-amino-1-benzyl-6-(3,5-dimethylisoxazol-4-yl)-1H-benzo[d]imidazol-2(3H)-one], the IC50 was at most 0.3 µM in test [1]; at most 0.3 µM with c-myc; at most 0.3 µM in the test with human AML MV-4-11 cells; at most 0.3 µM in the test on hIL-6 mRNA; 0.3 to 3 µM in the test with hIL-17 mRNA.
`CCNc1nc2c([N+](=O)[O-])cc(-c3c(C)noc3C)cc2n1Cc1ccccc1` [Example Compound 18, 1-benzyl-6-(3,5-dimethylisoxazol-4-yl)-N-ethyl-4-nitro-1H-benzo[d]imidazol-2-amine]: the IC50 in test [1] is at most 0.3 µM; in the test with c-myc, at most 0.3 µM; in the test on human AML MV-4-11 cells, at most 0.3 µM; in the test on hIL-6 mRNA, 0.3 to 3 µM; in the test with hIL-17 mRNA, 0.3 to 3 µM.
`CCNc1nc2c(N)cc(-c3c(C)noc3C)cc2n1Cc1ccccc1` [Example Compound 19, 1-benzyl-6-(3,5-dimethylisoxazol-4-yl)-N^2-ethyl-1H-benzo[d]imidazole-2,4-diamine]: the IC50 (in test [1]; with c-myc; in the test on human AML MV-4-11 cells; with hIL-6 mRNA; in the test with hIL-17 mRNA) was at most 0.3 µM in each case.
Turning to `Cc1noc(C)c1-c1cnc2ncn(C(C)c3ccccc3)c2c1` (stereo not drawn) [Example Compound 30], the IC50 is at most 0.3 µM in test [1]; 0.3 to 3 µM in the test with c-myc; 0.3 to 3 µM in the test with human AML MV-4-11 cells; 0.3 to 3 µM in the test with hIL-6 mRNA; 0.3 to 3 µM in the test on hIL-17 mRNA.
Take `Cc1noc(C)c1-c1cnc2ncn(Cc3ccc(F)cc3)c2c1` [Example Compound 45, 4-(1-(4-fluorobenzyl)-1H-imidazo[4,5-b]pyridin-6-yl)-3,5-dimethylisoxazole]: the IC50 was at most 0.3 µM in test [1]; 0.3 to 3 µM in the test on c-myc; 0.3 to 3 µM in the test on human AML MV-4-11 cells; 0.3 to 3 µM with hIL-6 mRNA; 0.3 to 3 µM in the test on hIL-17 mRNA.
In the case of `Cc1noc(C)c1-c1cnc2cnn(Cc3ccc(F)cc3)c2c1` [Example Compound 51, 4-(1-(4-fluorobenzyl)-1H-pyrazolo[4,3-b]pyridin-6-yl)-3,5-dimethylisoxazole], the IC50 in test [1] was at most 0.3 µM; in the test with c-myc it was 0.3 to 3 µM; in the test with human AML MV-4-11 cells it was 0.3 to 3 µM; in the test on hIL-6 mRNA, 0.3 to 3 µM; in the test with hIL-17 mRNA, 0.3 to 3 µM.
Turning to `Cc1noc(C)c1-c1cnc2c(C)nn(Cc3ccc(F)cc3)c2c1` [Example Compound 53, 4-(1-(4-fluorobenzyl)-3-methyl-1H-pyrazolo[4,3-b]pyridin-6-yl)-3,5-dimethylisoxazole], the IC50 in test [1] is at most 0.3 µM; with hIL-6 mRNA, 0.3 to 3 µM; with hIL-17 mRNA, 3 to 30 µM. The “Cell Proliferation activity” value in the test on human AML MV-4-11 cells (72 h) is “Not active”.
Regarding `Cc1noc(C)c1-c1cc(N)c2nc(C)n(Cc3ccccc3)c2c1` [Example Compound 55, 1-benzyl-6-(3,5-dimethylisoxazol-4-yl)-2-methyl-1H-benzo[d]imidazol-4-amine], the IC50 (in test [1]; in the test on c-myc; in the test on human AML MV-4-11 cells; with hIL-6 mRNA; in the test on hIL-17 mRNA) was at most 0.3 µM throughout.
For `Cc1noc(C)c1-c1cnc2nc(NCCN3CCOCC3)n(Cc3ccccc3)c2c1` [compound 215, 1-benzyl-6-(3,5-dimethylisoxazol-4-yl)-N-(2-morpholinoethyl)-1H-imidazo[4,5-b]pyridin-2-amine], the IC50 in test [1] was at most 0.3 µM; in the test with c-myc, at most 0.3 µM; in the test with human AML MV-4-11 cells, 0.3 to 3 µM; with hIL-6 mRNA, at most 0.3 µM.
Turning to `Cc1noc(C)c1-c1cnc2nc(N)n(Cc3ccccc3)c2c1` [compound 216, 1-benzyl-6-(3,5-dimethylisoxazol-4-yl)-1H-imidazo[4,5-b]pyridin-2-amine], the IC50 in test [1] is at most 0.3 µM; in the test with c-myc, 0.3 to 3 µM; in the test with human AML MV-4-11 cells, at most 0.3 µM; with hIL-6 mRNA it was at most 0.3 µM.
As for `Cc1noc(C)c1-c1cnc2nc(NCc3cccc(C#N)c3)n(Cc3ccccc3)c2c1` [compound 217, 3-(((1-benzyl-6-(3,5-dimethylisoxazol-4-yl)-1H-imidazo[4,5-b]pyridin-2-yl)amino)methyl)benzonitrile], the IC50 in test [1] is at most 0.3 µM; with c-myc, at most 0.3 µM; in the test with human AML MV-4-11 cells it was 0.3 to 3 µM; in the test on hIL-6 mRNA, at most 0.3 µM.
As to `Cc1noc(C)c1-c1cnc2[nH]c(=O)n([C@H](C)c3ccccc3)c2c1` [compound 218, (R)-6-(3,5-dimethylisoxazol-4-yl)-1-(1-phenylethyl)-1H-imidazo[4,5-b]pyridin-2(3H)-one], the IC50 in test [1] is at most 0.3 µM; with c-myc, 0.3 to 3 µM; in the test on human AML MV-4-11 cells it was 3 to 30 µM; with hIL-6 mRNA, 0.3 to 3 µM.
Take `Cc1noc(C)c1-c1cnc2nc(C3CCOCC3)n(Cc3ccccc3)c2c1` [compound 220, 4-(1-benzyl-2-(tetrahydro-2H-pyran-4-yl)-1H-imidazo[4,5-b]pyridin-6-yl)-3,5-dimethylisoxazole]: the IC50 is at most 0.3 µM in test [1], 3 to 30 µM in the test with c-myc, 0.3 to 3 µM in the test with human AML MV-4-11 cells and 0.3 to 3 µM with hIL-6 mRNA.
On to `CNC(=O)c1nc2ncc(-c3c(C)noc3C)cc2n1Cc1ccccc1` [compound 221, 1-benzyl-6-(3,5-dimethylisoxazol-4-yl)-N-methyl-1H-imidazo[4,5-b]pyridine-2-carboxamide], for which the IC50 in test [1] is at most 0.3 µM; with c-myc, 0.3 to 3 µM; in the test on human AML MV-4-11 cells, 0.3 to 3 µM; in the test on hIL-6 mRNA it was 0.3 to 3 µM.
In the case of `Cc1noc(C)c1-c1cnc2nc(NC3CCOCC3)n(CC3CCC3)c2c1` [compound 223, 1-(cyclobutylmethyl)-6-(3,5-dimethylisoxazol-4-yl)-N-(tetrahydro-2H-pyran-4-yl)-1H-imidazo[4,5-b]pyridin-2-amine], the IC50 in test [1] was at most 0.3 µM; in the test with c-myc, at most 0.3 µM; with human AML MV-4-11 cells, 0.3 to 3 µM; in the test on hIL-6 mRNA, 0.3 to 3 µM.

The values above are taken from patent US10363257B2 (ZENITH EPIGENETICS LTD., priority 2013, dated 2019).
